Data: patent publication US20230031406A1, “COMPOUNDS AND COMPOSITIONS FOR TREATING CONDITIONS ASSOCIATED WITH NLRP ACTIVITY” (Novartis AG, priority 2018, published 2023)
Where two headings read alike, the source gives them in different places. Values belong to the molecule of their own block, whether it stands above or below them.

Test system: PMA-differentiated THP-1 cells
Experiment: IL-1β production in PMA-differentiated THP-1 cells stimulated with gramicidin (hTHP-1 assay containing 2% fetal bovine serum; Procedures 1 and 2)
Type: cell-based, human
Details: 2% fetal bovine serum
Summary of the method: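 IL-1β release from PMA-differentiated THP-1 macrophage-like cells was triggered by 5 μM gramicidin for 2 h after 1 h compound exposure, then measured by HTRF.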

[1] = Homo sapiens, THP-1, Table B2, class symbols, read-out: hTHP-1 IC50
[2] = Homo sapiens, THP-1, Table B1, class symbols, read-out: Average IC50 of compounds in hTHP-1 assay: hTHP-1 IC50
[3] = Table B2, class symbols, read-out: hTHP-1 IC50
[4] = Homo sapiens, THP-1, Table B3, hTHP-1 assay, class symbols, read-out: IC50
[5] = Homo sapiens, THP-1, Table B2, numeric bounds, read-out: hTHP-1 IC50

SMILES: CCc1nc2c(c(NC(=O)N=S(N)(=O)c3ccn(C(F)F)n3)c1C1CC1)CCC2 (centres unmarked) [Compound 629, N′-((3-cyclopropyl-2-ethyl-6,7-dihydro-5H-cyclopenta[b]pyridin-4-yl)carbamoyl)-1-(difluoromethyl)-1H-pyrazole-3-sulfonimidamide]
IC50 [1]: 1 to 5 µM

SMILES: CC(C)(O)c1ncc(S(N)(=O)=NC(=O)Nc2c3c(nc4c2CCC4F)CCC3)s1 (single isomer, unassigned) [Compound 183d, (S,R) or (S,S)-N′-((3-fluoro-1,2,3,5,6,7-hexahydrodicyclo-penta[b,e]pyridin-8-yl)carbamoyl)-2-(2-hydroxypropan-2-yl)thiazole-5-sulfonimidamide]
IC50 (Table B1, numeric bounds, read-out: Average IC50 of compounds in hTHP-1 assay: hTHP-1 IC50): > 30 µM

SMILES: Cc1cn(C(C)C)nc1S(N)(=O)=NC(=O)Nc1c2c(nc3c1CCC3)CCC2 (single isomer, unassigned) [Compound 687a, (S) or (R)-N′-((1,2,3,5,6,7-hexahydrodicyclopenta [b,e]pyridin-8-yl)carbamoyl)-1-isopropyl-4-methyl-1H-pyrazole-3-sulfonimidamide]
IC50 [5]: > 30 µM

SMILES: Cc1nc2c(c(NC(=O)N=S(N)(=O)c3ncc(C(C)(C)O)s3)c1C1CC1)CCC2 (single isomer, unassigned) [Compound 618a, (S) or (R)-N′-((3-cyclopropyl-2-methyl-6,7-dihydro-5H-cyclopenta[b]pyridin-4-yl)carbamoyl)-5-(2-hydroxypropan-2-yl)thiazole-2-sulfonimidamide]
IC50 [5]: > 30 µM

SMILES: CC(C)(O)c1ncc(S(N)(=O)=NC(=O)Nc2nc3ccccc3c3c2CCC3)s1 (centres unmarked) [Compound 111, N′-((2,3-dihydro-1H-cyclopenta[c]quinolin-4-yl)carbamoyl)-2-(2-hydroxypropan-2-yl)thiazole-5-sulfonimidamide]
IC50 (Homo sapiens, THP-1, Table B1, numeric bounds, read-out: Average IC50 of compounds in hTHP-1 assay: hTHP-1 IC50): > 30 µM

SMILES: CCC1CCc2c1nc1c(c2NC(=O)N=S(N)(=O)c2sc(C(C)(C)O)cc2F)CCC1 (single isomer, unassigned) [Compound 671b, (S, R) or (S, S) or (R, S) or (R, R)-N′-((3-ethyl-1,2,3,5,6,7-hexahydrodicyclopenta [b,e]pyridin-8-yl)carbamoyl)-3-fluoro-5-(2-hydroxypropan-2-yl) thiophene-2-sulfonimidamide]
IC50 [3]: 5 to 30 µM

SMILES: CCn1nc(S(N)(=O)=NC(=O)Nc2c3c(nc4c2CC[C@H]4C)CCC3)cc1CO (stereo partly drawn) [Example 590, 1-Ethyl-5-(hydroxymethyl)-N′-(((R)-3-methyl-1,2,3,5,6,7-hexahydrodicyclopenta[b,e]pyridin-8-yl)carbamoyl)-1H-pyrazole-3-sulfonimidamide]
IC50 [4]: 1 to 5 µM

SMILES: CC(C)n1ccc(S(N)(=O)=NC(=O)Nc2c3c(nc4c2CCC4)CCC3)n1 (single isomer, unassigned) [Compound 119a, (R) or (S)-N′-((1,2,3,5,6,7-hexahydrodicyclo-penta[b,e]pyridin-8-yl)carbamoyl)-1-isopropyl-1H-pyrazole-3-sulfonimidamide]
IC50 [2]: 1 to 5 µM

SMILES: Cc1c(C2(F)CC2)nc2c(c1NC(=O)N=S(N)(=O)c1cc(C(C)(C)O)cs1)CCC2 (single isomer, unassigned) [Example 684, (S) or (R)-N′-((2-(1-fluorocyclopropyl)-3-methyl-6,7-dihydro-5H-cyclopenta[b]pyridin-4-yl)carbamoyl)-4-(2-hydroxypropan-2-yl)thiophene-2-sulfonimidamide]
IC50 (Homo sapiens, THP-1, Table B3, hTHP-1 assay, numeric values, read-out: IC50): > 30 µM

Continued, values first:

IC50 [2]: 0.2 to 1 µM
SMILES: CC(C)(O)c1nc(CO)c(S(N)(=O)=NC(=O)Nc2c3c(nc4c2CCC4(C)C)CCC3)s1 (centres unmarked) [Compound 121, N′-((3,3-dimethyl-1,2,3,5,6,7-hexahydrodicyclopenta[b,e]pyridin-8-yl)carbamoyl)-4-(hydroxymethyl)-2-(2-hydroxypropan-2-yl)thiazole-5-sulfonimidamide]

IC50 (Table B1, class symbols, read-out: Average IC50 of compounds in hTHP-1 assay: hTHP-1 IC50): 5 to 30 µM
SMILES: CC1(C)CCc2c1nc1c(c2NC(=O)N=S(N)(=O)c2ccn(C(F)F)n2)CCC1 (single isomer, unassigned) [Compound 122b, (S) or (R)-1-(difluoromethyl)-N′-((3,3-dimethyl-1,2,3,5,6,7-hexahydrodicyclo-penta[b,e]pyridin-8-yl)carbamoyl)-1H-pyrazole-3-sulfonimidamide]

IC50 [1]: 1 to 5 µM
SMILES: Cc1cc(S(N)(=O)=NC(=O)Nc2c3c(nc4c2CCC4)CCC3)sc1C(C)(C)O (centres unmarked) [Compound 692, N′-((1,2,3,5,6,7-hexahydrodicyclopenta[b,e]pyridin-8-yl)carbamoyl)-5-(2-hydroxypropan-2-yl)-4-methylthiophene-2-sulfonimidamide]

IC50 [3]: 5 to 30 µM
SMILES: Cc1c(C(F)(F)F)nc2c(c1NC(=O)N=S(N)(=O)c1cnc(C(C)(O)CO)s1)CCC2 (single isomer, unassigned) [Compound 605g, (S, S) or (R, S)-2-(1,2-Dihydroxypropan-2-yl)-N′-((3-methyl-2-(trifluoromethyl)-6,7-dihydro-5H-cyclopenta[b]pyridin-4-yl)carbamoyl) thiazole-5-sulfonimidamide]

IC50 [4]: 1 to 5 µM
SMILES: Cc1c(C2(F)CC2)nc2c(c1NC(=O)N=S(N)(=O)c1cc(C(C)(C)O)cs1)CCC2 (centres unmarked) [Example 611, N′-((2-(1-fluorocyclopropyl)-3-methyl-6,7-dihydro-5H-cyclopenta[b]pyridin-4-yl)carbamoyl)-4-(2-hydroxypropan-2-yl)thiophene-2-sulfonimidamide]

IC50 [1]: 1 to 5 µM
SMILES: CNS(=O)(=O)c1cccc(S(N)(=O)=NC(=O)Nc2c3c(nc4c2CCC4(C)C)CCC3)c1 (centres unmarked) [Compound 735, 3-(N′-((3,3-dimethyl-1,2,3,5,6,7-hexahydrodicyclopenta [b,e]pyridin-8-yl)carbamoyl)sulfamidimidoyl)-N-methylbenzenesulfonamide]

IC50 [5]: > 30 µM
SMILES: CC(C)(O)c1sc(S(N)(=O)=NC(=O)Nc2c3c(nc4c2CCC4)CCC3)cc1F (single isomer, unassigned) [Compound 678b, (S) or (R)-4-Fluoro-N′-((1,2,3,5,6,7-hexahydrodicyclopenta [b,e]pyridin-8-yl)carbamoyl)-5-(2-hydroxypropan-2-yl)thiophene-2-sulfonimidamide]

IC50 [1]: 1 to 5 µM
SMILES: NS(=O)(=NC(=O)Nc1c2c(nc3c1CCC3)CCC2)c1ccn(CC(F)(F)F)n1 (single isomer, unassigned) [Compound 685b, (R) or (S)-N′-((1,2,3,5,6,7-hexahydrodicyclopenta [b,e]pyridin-8-yl)carbamoyl)-1-(2,2,2-trifluoroethyl)-1H-pyrazole-3-sulfonimidamide]

IC50 [3]: 0.2 to 1 µM
SMILES: Cc1c(C(F)(F)F)nc2c(c1NC(=O)N=S(N)(=O)c1cnc(C(C)(O)CO)s1)CCC2 (single isomer, unassigned) [Compound 605b, (R, R) and (S, R) or (R, S) and (S, S)-2-(l,2-Dihydroxypropan-2-yl)-N′-((3-methyl-2-(trifluoromethyl)-6,7-dihydro-5H-cyclopenta[b]pyridin-4-yl)carbamoyl) thiazole-5-sulfonimidamide]

IC50 [1]: 5 to 30 µM
SMILES: CC(C)(O)c1scc(S(N)(=O)=NC(=O)Nc2c3c(nc4c2CCC4)CCC3)c1F (single isomer, unassigned) [Compound 701a, (R) or (S)-4-Fluoro-N′-((1,2,3,5,6,7-hexahydrodicyclopenta [b,e]pyridin-8-yl)carbamoyl)-5-(2-hydroxypropan-2-yl)thiophene-3-sulfonimidamide]

IC50 [4]: 1 to 5 µM
SMILES: CCc1ccsc1S(N)(=O)=NC(=O)Nc1c2c(nc3c1CC[C@H]3C)CCC2 (stereo partly drawn) [Example 631, 3-Ethyl-N′-(((R)-3-methyl-1,2,3,5,6,7-hexahydrodicyclopenta[b,e]pyridin-8-yl)carbamoyl)thiophene-2-sulfonimidamide]
